pIC50: −log10 of the molar value. Structures can show the parent of a compound that is named as a salt.

In the test the target is HSET full length protein (Homo sapiens (Human), UniProt Q9BW19). Briefly: HSET ADP-Glo Assay S - 3 μM ATP. The test is classed as biochemical. Conditions: 5 nM HSET, 70 μg/mL microtubule, 80 min at rt, read-out: COMBINED HSET ADP GLO IC50. The essentials: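 ADP-Glo luminescence read-out: ATPase reaction at 3 μM ATP, 80 min at room temperature, after a 10 min compound preincubation. Enzyme was full-length human HSET at 5 nM, stimulated by 70 μg/mL paclitaxel-stabilised bovine microtubules in HEPES pH 6.8 buffer with MgCl2, EGTA, Triton X-100 and DTT.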
Sequence of HSET full length protein (Q9BW19 whole entry): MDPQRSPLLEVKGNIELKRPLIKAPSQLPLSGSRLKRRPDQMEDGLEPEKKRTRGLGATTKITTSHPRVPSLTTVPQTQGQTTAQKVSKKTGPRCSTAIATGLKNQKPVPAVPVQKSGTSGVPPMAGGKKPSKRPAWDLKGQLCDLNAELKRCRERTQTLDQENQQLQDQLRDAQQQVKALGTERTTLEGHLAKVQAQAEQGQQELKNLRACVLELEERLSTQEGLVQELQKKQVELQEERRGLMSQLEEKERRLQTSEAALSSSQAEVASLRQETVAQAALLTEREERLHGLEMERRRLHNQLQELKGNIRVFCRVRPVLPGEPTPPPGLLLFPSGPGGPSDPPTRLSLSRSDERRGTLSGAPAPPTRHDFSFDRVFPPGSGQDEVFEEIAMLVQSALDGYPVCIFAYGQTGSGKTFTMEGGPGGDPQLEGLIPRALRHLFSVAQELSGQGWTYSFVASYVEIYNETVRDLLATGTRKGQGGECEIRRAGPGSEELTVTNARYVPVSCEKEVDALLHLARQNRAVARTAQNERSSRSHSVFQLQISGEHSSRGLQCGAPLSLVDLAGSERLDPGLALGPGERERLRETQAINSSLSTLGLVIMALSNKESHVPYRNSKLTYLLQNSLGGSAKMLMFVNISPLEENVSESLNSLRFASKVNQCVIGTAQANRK
A general note: In ADP-Glo the light output rises with the ADP produced.
By pIC50 is commonly meant the negative decadic logarithm of the IC50, by convention in mol/L. For `CCCOC(=O)c1sc(C(=O)NCCNc2nccc3ccc(-c4noc(C)n4)cc23)nc1C` [Example 70, Propyl 4-methyl-2-((2-((7-(5-methyl-1,2,4-oxadiazol-3-yl)isoquinolin-1-yl)amino)ethyl)carbamoyl)thiazole-5-carboxylate], the pIC50 is 7.96.

Regarding `CCOC(=O)c1cc(C(=O)NCCNc2nccc3ccc(-c4noc(C)n4)cc23)nn1C` [Example 71, Ethyl 1-methyl-3-((2-((7-(5-methyl-1,2,4-oxadiazol-3-yl)isoquinolin-1-yl)amino)ethyl)carbamoyl)-1 H-pyrazole-5-carboxylate], the pIC50 was 4.96.

Turning to `CCCOC(=O)c1cc(C(=O)NCCNc2nccc3ccc(-c4noc(C)n4)cc23)nn1C` [Example 72, Propyl 1-methyl-3-((2-((7-(5-methyl-1,2,4-oxadiazol-3-yl)isoquinolin-1-yl)amino)ethyl)carbamoyl)-1 H-pyrazole-5-carboxylate], the pIC50 is 5.37.

`CCCNC(=O)c1cc(NC(=O)CCNc2nccc3ccc(-c4noc(C)n4)cc23)nn1C` [Example 73, 1-Methyl-3-(3-((7-(5-methyl-1,2,4-oxadiazol-3-yl)isoquinolin-1-yl)amino)propanamido)-N-propyl-1 H-pyrazole-5-carboxamide]: the negative-log IC50 (pIC50) was 5.41.

With `CCCOC(=O)c1sc(C(=O)N(C)CCNc2nccc3ccc(-c4noc(C)n4)cc23)nc1C` [Example 74, Propyl 4-methyl-2-(methyl(2-((7-(5-methyl-1,2,4-oxadiazol-3-yl)isoquinolin-1-yl)amino)ethyl)carbamoyl)thiazole-5-carboxylate], the pIC50 was 6.57.

Turning to `CCc1cc(NC(=O)CCNc2nccc3ccc(-c4noc(C)n4)cc23)nn1C` [Example 76], the negative-log IC50 (pIC50) is 5.08.

`Cc1nc(-c2ccc3ccnc(NCCC(=O)Nc4cc(C(C)(C)C)on4)c3c2)no1` [Example 77, N-(5-(tert-butyl)isoxazol-3-yl)-3-((7-(5-methyl-1,2,4-oxadiazol-3-yl)isoquinolin-1-yl)amino)propenamide]: the negative-log IC50 (pIC50) is 6.25.

For the molecule `Cc1nc(-c2ccc3ccnc(NCCC(=O)Nc4cc(C5CC5)on4)c3c2)no1` [Example 78], the negative logarithm of the IC50 (pIC50) is 5.82.

Turning to `CCc1cc(NC(=O)CCNc2nccc3ccc(-c4noc(C)n4)cc23)no1` [Example 79, N-(5-ethylisoxazol-3-yl)-3-((7-(5-methyl-1,2,4-oxadiazol-3-yl)isoquinolin-1-yl)amino)propanamide], the pIC50 was 5.36.

Consider `Cc1nc(-c2ccc3ccnc(NCCC(=O)Nc4ncc(C(C)(C)C)s4)c3c2)no1` [Example 80, N-(5-(tert-butyl)thiazol-2-yl)-3-((7-(5-methyl-1,2,4-oxadiazol-3-yl)isoquinolin-1-yl)amino)propanamide], for which the pIC50 was 6.70.

Take `CCc1nc(NC(=O)CCNc2nccc3ccc(-c4noc(C)n4)cc23)sc1C(C)(C)C` [Example 81, N-(5-(tert-butyl)-4-ethylthiazol-2-yl)-3-((7-(5-methyl-1,2,4-oxadiazol-3-yl)isoquinolin-1-yl)amino)propanamide]: the negative logarithm of the IC50 (pIC50) was 7.68.

`Cc1nc(-c2ccc3ccnc(NCCC(=O)Nc4cc(C(C)(C)C)n(C)n4)c3c2)no1` [Example 82, N-(5-(tert-butyl)-1-methyl-1 H-pyrazol-3-yl)-3-((7-(5-methyl-1,2,4-oxadiazol-3-yl)isoquinolin-1-yl)amino)propanamide]: the negative-log IC50 (pIC50) was 5.83.

In the case of `COC1(c2sc(NC(=O)CCNc3nccc4ccc(-c5noc(C)n5)cc34)nc2C)COC1` [Example 83, N-[5-(3-methoxyoxetan-3-yl)-4-methyl-thiazol-2-yl]-3-[[7-(5-methyl-1,2,4-oxadiazol-3-yl)-1-isoquinolyl]amino]propanamide], the pIC50 was 5.78.

Take `CCCOC1(c2sc(NC(=O)CCNc3nccc4ccc(-c5noc(C)n5)cc34)nc2C)COC1` [Example 84]: the negative-log IC50 (pIC50) was 7.24.

For `CCCN(C)C(=O)c1sc(NC(=O)CCNc2nccc3ccc(-c4noc(C)n4)cc23)nc1C` [Example 85, N,4-dimethyl-2-[3-[[7-(5-methyl-1,2,4-oxadiazol-3-yl)-1-isoquinolyl]amino]propanoylamino]-N-propyl-thiazole-5-carboxamide], the negative-log IC50 (pIC50) was 5.76.

Take `Cc1nc(-c2ccc3ccnc(NCCC(=O)Nc4ncc(C5=CCCCC5)s4)c3c2)no1` [Example 86]: the pIC50 is 6.07.

For `COC1(c2cnc(NC(=O)CCNc3nccc4ccc(-c5noc(C)n5)cc34)s2)CCCCC1` [Example 87], the negative-log IC50 (pIC50) was 5.03.

With `CCOC(=O)c1sc(NC(=O)CCNC(=O)c2cccc(-c3noc(C)n3)c2)nc1C(C)C` [Example 88, Ethyl 4-isopropyl-2-[3-[[3-(5-methyl-1,2,4-oxadiazol-3-yl)benzoyl]amino]propanoylamino]thiazole-5-carboxylate], the pIC50 is 6.32.

For `Cc1nc(NC(=O)CCNC(=O)c2cccc(-c3cnn(C)c3)c2)sc1C(=O)OC(C)(C)C` [Example 89, tert-Butyl-4-methyl-2-(3-(3-(1-methyl-1 H-pyrazol-4-yl)benzamido)propanamido)thiazole-5-carboxylate], the pIC50 is 6.41.

On to `CCc1nc(NC(=O)CCNC(=O)c2cccc(-c3noc(C)n3)c2)sc1C(=O)OC` [Example 90, Methyl 4-ethyl-2-[3-[[3-(5-methyl-1,2,4-oxadiazol-3-yl)benzoyl]amino]propanoylamino]thiazole-5-carboxylate], for which the pIC50 is 6.25.

As for `CCOC(=O)c1sc(NC(=O)CCNC(=O)c2cccc(-c3noc(C)n3)c2)nc1C(F)(F)F` [Example 91, Ethyl 2-[3-[[3-(5-methyl-1,2,4-oxadiazol-3-yl)benzoyl]amino]propanoylamino]-4-(trifluoromethyl)thiazole-5-carboxylate], the negative-log IC50 (pIC50) is 6.38.

Turning to `CCOC(=O)c1sc(NC(=O)CCNC(=O)c2cccc(-c3noc(C)n3)c2)nc1CC` [Example 92, Ethyl 4-ethyl-2-[3-[[3-(5-methyl-1,2,4-oxadiazol-3-yl)benzoyl]amino]propanoylamino]thiazole-5-carboxylate], the pIC50 was 7.35.

Consider `Cc1nc(-c2cccc(C(=O)NCCC(=O)Nc3nc(C)c(/C=C/C4CCCC4)s3)c2)no1` [Example 93, N-[3-[[5-[(E)-2-cyclopentylvinyl]-4-methyl-thiazol-2-yl]amino]-3-oxo-propyl]-3-(5-methyl-1,2,4-oxadiazol-3-yl)benzamide], for which the negative logarithm of the IC50 (pIC50) is 6.16.

With `COC/C=C/c1sc(NC(=O)CCNC(=O)c2cccc(-c3noc(C)n3)c2)nc1C` [Example 94, N-[3-[[5-[(E)-3-methoxyprop-1-enyl]-4-methyl-thiazol-2-yl]amino]-3-oxo-propyl]-3-(5-methyl-1,2,4-oxadiazol-3-yl)benzamide], the negative logarithm of the IC50 (pIC50) is 4.87.

Regarding `C=C(c1ccccc1)c1sc(NC(=O)CCNC(=O)c2cccc(-c3noc(C)n3)c2)nc1C` [Example 95, 3-(5-Methyl-1,2,4-oxadiazol-3-yl)-N-[3-[[4-methyl-5-(1-phenylvinyl)thiazol-2-yl]amino]-3-oxo-propyl]benzamide], the pIC50 was 6.08.

As for `Cc1nc(-c2ccc3ccnc(N[C@H]4C[C@@H](C(=O)Nc5ncc(C(F)(F)C(F)(F)F)s5)C4)c3c2)no1` [Example 96, 3-[[7-(5-methyl-1,2,4-oxadiazol-3-yl)-1-isoquinolyl]amino]-N-[5-(1,1,2,2,2-pentafluoroethyl)thiazol-2-yl]cyclobutanecarboxamide], the pIC50 was 5.66.

As for `Cc1nc(-c2ccc3ccnc(N[C@H]4C[C@@H](C(=O)Nc5nc(C)c(C(C)(C)C)s5)C4)c3c2)no1` [Example 98, (1 s,3s)-N-(5-(tert-butyl)-4-methylthiazol-2-yl)-3-((7-(5-methyl-1,2,4-oxadiazol-3-yl)isoquinolin-1-yl)amino)cyclobutane-1-carboxamide], the pIC50 is 7.14.

Regarding `CCCOC(=O)c1sc(NC(=O)[C@H]2C[C@@H](Nc3nccc4ccc(-c5noc(C)n5)cc34)C2)nc1C` [Example 99, Propyl4-methyl-2-((1s,3s)-3-((7-(5-methyl-1,2,4-oxadiazol-3-yl)isoquinolin-1-yl)amino)cyclobutane-1-carboxamido)thiazole-5-carboxylate], the pIC50 is 8.15.

In the case of `Cc1nc(-c2ccc3ccnc(N[C@H]4C[C@@H](C(=O)Nc5cc(C(C)(C)C)on5)C4)c3c2)no1` [Example 100, (1 s,3s)-N-(5-(tert-butyl)isoxazol-3-yl)-3-((7-(5-methyl-1,2,4-oxadiazol-3-yl)isoquinolin-1-yl)amino)cyclobutane-1-carboxamide], the pIC50 is 6.08.

Turning to `CCCCCc1cc(NC(=O)[C@H]2C[C@@H](Nc3nccc4ccc(-c5noc(C)n5)cc34)C2)nn1C` [Example 101, (1s,3s)-3-((7-(5-methyl-1,2,4-oxadiazol-3-yl)isoquinolin-1-yl)amino)-N-(1-methyl-5-pentyl-1 H-pyrazol-3-yl)cyclobutane-1-carboxamide], the pIC50 is 6.56.

Take `Cc1nc(-c2ccc3ccnc(N[C@H]4C[C@@H](C(=O)Nc5cc(C)c(CC(C)C)s5)C4)c3c2)no1` [Example 102, (1s,3s)-N-(5-isobutyl-4-methylthiophen-2-yl)-3-((7-(5-methyl-1,2,4-oxadiazol-3-yl)isoquinolin-1-yl)amino)cyclobutane-1-carboxamide formate]: the pIC50 was 6.39.

On to `Cc1nc(-c2ccc3ccnc(N[C@H]4C[C@@H](C(=O)Nc5nc(C)c(C(F)(F)F)s5)C4)c3c2)no1` [Example 103, (1s,3s)-3-((7-(5-methyl-1,2,4-oxadiazol-3-yl)isoquinolin-1-yl)amino)-N-(4-methyl-5-(trifluoromethyl)thiazol-2-yl)cyclobutane-1-carboxamide], for which the pIC50 is 6.17.

As for `Cc1nc(-c2cccc(C(=O)N[C@H]3C[C@@H](C(=O)Nc4nc(C)c(C(=O)OC(C)(C)C)s4)C3)c2)no1` [Example 104, tert-Butyl 4-methyl-2-((1s,3s)-3-(3-(5-methyl-1,2,4-oxadiazol-3-yl)benzamido)cyclobutane-1-carboxamido)thiazole-5-carboxylate], the pIC50 was 7.03.

The values above are taken from patent publication US20250084074A1, “SUBSTITUTED HETEROCYCLES AS HSET INHIBITORS” (MERCK PATENT GMBH, priority 2022, published 2025).
